Test results reported in PubChem BioAssay (NCI).
Where “and” joins values, the source holds several entries; their conditions need not be identical. Equal values may be shown once.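 Where inhibition never reached the appropriate level, the endpoint shown equals the highest concentration tested. Otherwise, values were interpolated linearly from a five-concentration, 48-hour dose response in 96-well plates. GI50 marks 50% less growth. TGI denotes the concentration required for complete inhibition of growth.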

How the values were obtained:
Assay in all cases: DTP human tumour cell line panel, 48 h
[1] = test system: A498 renal
[2] = test system: BT-549 breast
[3] = test system: CCRF-CEM leukemia
[4] = test system: HCT-15 colon
[5] = test system: HL-60(TB) leukemia
[6] = test system: HOP-92 NSCLC
[7] = test system: K-562 leukemia
[8] = test system: MCF7 breast
[9] = test system: MOLT-4 leukemia
[10] = test system: SK-MEL-2 melanoma

Row | SMILES | GI50 [1] | TGI [1] | GI50 [2] | TGI [2] | GI50 [3] | TGI [3] | GI50 [4] | TGI [4] | GI50 [5] | TGI [5] | GI50 [6] | GI50 [7] | TGI [8] [µM] | GI50 [9] | GI50 [10] [µM] | TGI [10] | TGI [6] | TGI [7] [µM] | GI50 [8] | TGI [9]
1 | CC[C@H]1CN2CCc3cc(OC)c(OC)cc3[C@@H]2C[C@@H]1C[C@H]1NCCc2c1[nH]c1ccc(O)cc21 | 0.191 µM | 0.136 µM and 0.507 µM and 0.223 µM | 0.558 µM | 0.602 µM | 0.0129 µM and 0.0207 µM | 0.239 µM and 0.054 µM and 0.326 µM | 0.688 µM | 5.38 µM and 4.1 µM | 0.0296 µM and 0.025 µM | 0.0955 µM and 0.0514 µM and 0.0353 µM | 0.0183 µM and 0.0337 µM | 0.0263 µM and 0.0353 µM | 0.137 | 0.0117 µM and 0.0272 µM | 0.0228 | 0.052 µM and 0.0353 µM |  |  |  | 
2 | Cc1[nH]c(/C=C2\C(=O)Nc3ccccc32)c(C)c1CCC(=O)O | 21.4 µM | 61.7 µM and > 100 µM | 22.5 µM | 73.9 µM and > 100 µM | 28.3 µM | > 100 µM |  | > 100 µM | 20.2 µM | 45.8 µM | 12.7 µM |  | > 100 | 26.5 µM |  | 38.5 µM and 38.8 µM | 43.2 µM and 62.8 µM | > 100 | 23.9 µM | 69.4 µM and 84.4 µM
3 | CN1C(=O)/C(=C/c2c(Cl)n(C)c3ccccc23)c2ccccc21 |  |  | 3.31 µM | 9.25 µM |  | > 100 µM | 2.69 µM and 1.89 µM | 3.56 µM | 0.44 µM | 10.2 µM | 1.8 µM | 3.15 µM | > 100 | 1.88 µM and 0.245 µM | 5 |  | 3.34 µM |  | 3.02 µM and 2.15 µM | 0.756 µM
4 | CCCOc1ccc2sc(NC(=O)OC)nc2c1 | 2.34 µM | > 27.1 µM | 3.81 µM | > 100 µM | 2.07 µM | > 28.4 µM | 0.611 µM | > 100 µM | 0.616 µM | 5.24 µM | 3.38 µM | 0.419 µM | > 100 | 2.73 µM | 2.05 | > 100 µM | > 100 µM | > 100 | 1.08 µM | > 100 µM
5 | CSc1ccc2c(c1)C(=O)c1c-2n(CCCBr)c(=O)c2cc([N+](=O)[O-])ccc12 | 8.32 µM | 96.4 µM | 80.7 µM | > 100 µM | 0.451 µM | > 100 µM | 47.2 µM | > 100 µM | 0.532 µM | 8.46 µM | 0.356 µM | 3.94 µM | > 100 | 0.558 µM | > 100 | > 100 µM | 10.3 µM | 19.3 | 1.58 µM | 17 µM
6 | Cn1cc(C2=C(c3cccc(Br)c3)C(=O)NC2=O)c2ccccc21 | 4.51 µM | 17.9 µM | 15.1 µM | > 25 µM | 12.3 µM | > 25 µM | 9.24 µM | > 25 µM | 10.2 µM | > 25 µM | 8.62 µM | 8.65 µM | > 25 | 9.91 µM | 11.6 | > 21.6 µM | > 25 µM | > 25 | 6.08 µM | > 25 µM
7 | Cc1cc(C)c(/C=C2\C(=O)Nc3ccc(NC(=O)CCCCCCC(=O)NO)cc32)[nH]1 | 1.4 µM | 18.2 µM | 4.43 µM | > 100 µM | 0.311 µM | > 100 µM | > 100 µM | > 100 µM | 0.506 µM | > 100 µM | 0.47 µM | 0.373 µM | > 100 | 0.43 µM | 1.89 | 49.8 µM | > 100 µM | > 100 | 0.529 µM | 35.3 µM
8 | O=C1NC(=O)/C(=C\c2ccccc2)C2=C1CCCC2 | 12.9 µM | 26.1 µM | 4.13 µM | 16.4 µM | 3.7 µM | > 37.9 µM | 10.4 µM | 22.5 µM | 3.25 µM | 12.5 µM | 15.9 µM | 5.39 µM | 25 | 2.77 µM | 7.72 | 22.9 µM | 38.2 µM | > 40.3 | 5.15 µM | 7.73 µM
9 | OCCCNc1nccc(-c2c(-c3ccc(F)cc3)nn3cc(C(F)(F)F)ccc23)n1 | 12.8 µM | > 25 µM | > 25 µM | > 25 µM | 11.4 µM | > 25 µM | 8.1 µM | > 25 µM | > 19.6 µM | > 25 µM | 8.1 µM | 10.4 µM | > 25 | 14.3 µM | > 23.1 | > 25 µM | > 25 µM | > 25 | 15.1 µM | > 25 µM
10 | CN(CCO)c1ccc(N2Cc3ccccc3OC3=C2C(=O)c2c(O)ccc(O)c2C3=O)cn1 | 2.17 µM | 5.66 µM | 0.177 µM | 0.386 µM | 0.0566 µM | 0.548 µM | 0.127 µM | 0.484 µM | 0.114 µM | 0.406 µM | 0.223 µM | 0.0759 µM | 0.31 | 0.135 µM | 0.299 | 0.99 µM | 0.505 µM | > 100 | 0.0638 µM | 1.19 µM
11 | N#CC1=C(N)Oc2cc(O)ccc2C1c1cccc2ccccc12 (stereo unspecified) | 5.25 µM | 22.7 µM | 7.52 µM | 29.6 µM | 7 µM | 36.9 µM | 8.71 µM | 26.9 µM | 3.16 µM | 11.7 µM | 3.78 µM | 3.68 µM | 24.5 | 5.58 µM | 11.7 | 24.3 µM | 23.7 µM | 17 | 8.69 µM | 31.3 µM
12 | Cc1nc2sc3c(c2c(=O)[nH]1)CCCC3 |  | > 100 µM |  | > 100 µM |  |  |  | > 100 µM |  | > 100 µM |  |  | > 100 |  |  | > 100 µM | > 100 µM | > 100 |  | > 100 µM
13 | CC1=NC(=Cc2cc(Br)cc(Br)c2)C(=O)N1n1c(-c2ccccc2)nc2ccccc2c1=O |  |  |  | > 100 µM |  | > 100 µM |  | > 100 µM |  | > 100 µM |  |  | > 100 |  |  | > 100 µM | > 100 µM | > 100 |  | > 100 µM
14 | COC(=O)[C@@H](C)C[C@H](Cc1ccccc1)NC(=O)c1csc([C@@H](C[C@H](C(C)C)N(C)C(=O)[C@@H](NC(=O)[C@H]2CCCCN2C)C2CCCCC2)OC(C)=O)n1 | 0.000272 µM and 0.0025 µM |  | 0.000701 µM and 0.0025 µM |  | 0.00195 µM and 0.0025 µM | 5.8 µM | 0.00102 µM and 0.0025 µM | > 25 µM | 0.000306 µM and < 0.0025 µM | 0.00159 µM and < 0.0025 µM | 0.000977 µM and 0.0025 µM | 0.000374 µM and 0.0025 µM | > 25 | 0.00512 µM and 0.0025 µM |  |  | 0.0112 µM | 4.33 |  | 4.87 µM
